Source: the supplement of paper PMC10307832

How the values were obtained:
Assay in all cases: relative viability (nuclei count vs DMSO), 5 days (fraction); higher = more cells survive
Alpelisib + Decitabine = compound: Cc1nc(NC(=O)N2CCC[C@H]2C(N)=O)sc1-c1ccnc(C(C)(C)C(F)(F)F)c1 [Alpelisib] + Nc1ncn([C@H]2C[C@H](O)[C@@H](CO)O2)c(=O)n1 [Decitabine] (partner 2 µM)
Method in brief: (§1)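 After 5 days of treatment, lung cancer cells in 1536-well plates were fixed and stained in a single step (final 0.05% Triton X-100, 1% formaldehyde, 1 ug/ml Hoechst) and their nuclei counted on 4× images. Treatment had been applied by pin tool the day after seeding as one drug alone or as a fixed anchor-drug dose with five library-drug doses (not always all listed) in √10 steps. Relative viability is the nuclei count of treated wells divided by that of vehicle wells, and values are medians of duplicate plates.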

Alpelisib + Palbociclib = compound: Cc1nc(NC(=O)N2CCC[C@H]2C(N)=O)sc1-c1ccnc(C(C)(C)C(F)(F)F)c1 [Alpelisib] + CC(=O)c1c(C)c2cnc(Nc3ccc(N4CCNCC4)cn3)nc2n(C2CCCC2)c1=O [Palbociclib] (partner 0.5 µM)
Method in brief: as §1

Vemurafenib + Crizotinib = compound: CCCS(=O)(=O)Nc1ccc(F)c(C(=O)c2c[nH]c3ncc(-c4ccc(Cl)cc4)cc23)c1F [Vemurafenib] + C[C@@H](Oc1cc(-c2cnn(C3CCNCC3)c2)cnc1N)c1c(Cl)ccc(F)c1Cl [Crizotinib] (partner 1 µM)
Method in brief: as §1

Alpelisib + Phenformin = compound: Cc1nc(NC(=O)N2CCC[C@H]2C(N)=O)sc1-c1ccnc(C(C)(C)C(F)(F)F)c1 [Alpelisib] + N=C(N)NC(=N)NCCc1ccccc1 [Phenformin] (partner 250 µM)
Method in brief: as §1

Cell Line	relative viability (Alpelisib + Decitabine; first compound 0.04 µM)	relative viability (Alpelisib + Decitabine; first compound 0.1265 µM)	relative viability (Alpelisib + Decitabine; first compound 0.4 µM)	relative viability (Alpelisib + Decitabine; first compound 1.265 µM)	relative viability (Alpelisib + Decitabine; first compound 4 µM)	relative viability (Alpelisib + Palbociclib; first compound 0.04 µM)	relative viability (Alpelisib + Palbociclib; first compound 0.1265 µM)	relative viability (Alpelisib + Palbociclib; first compound 0.4 µM)	relative viability (Alpelisib + Palbociclib; first compound 1.265 µM)	relative viability (Alpelisib + Palbociclib; first compound 4 µM)	relative viability (Vemurafenib + Crizotinib; first compound 0.03162 µM)	relative viability (Vemurafenib + Crizotinib; first compound 0.3162 µM)	relative viability (Vemurafenib + Crizotinib; first compound 1 µM)	relative viability (Alpelisib + Phenformin; first compound 0.04 µM)	relative viability (Alpelisib + Phenformin; first compound 0.1265 µM)	relative viability (Alpelisib + Phenformin; first compound 0.4 µM)	relative viability (Alpelisib + Phenformin; first compound 1.265 µM)	relative viability (Alpelisib + Phenformin; first compound 4 µM)	relative viability (Vemurafenib + Crizotinib; first compound 0.1 µM)
PC-14	0.244	0.243	0.248	0.196	0.221	0.556	0.499	0.602	0.464	0.497	0.749	0.849	0.852	0.653	0.406	0.67	0.54	0.526	–
NCI-H1355	0.41	0.386	0.328	0.328	0.297	0.403	0.412	0.377	0.341	0.267	1	0.992	1.05	0.421	0.404	0.438	0.433	0.332	0.963
LXF-289	0.373	0.352	0.336	0.377	0.277	0.55	0.562	0.653	0.534	0.604	0.783	0.838	0.87	0.482	0.527	0.513	0.481	0.482	0.796
LOU-NH91	0.823	0.781	0.79	0.679	0.648	0.586	0.511	0.547	0.511	0.496	0.691	–	0.752	0.668	0.58	0.648	0.525	0.472	0.515
NCI-H2170	0.44	0.424	0.477	0.439	0.401	0.351	0.337	0.36	0.246	0.21	1.09	1.15	1.14	0.466	0.384	0.438	0.45	0.387	0.752
NCI-H2405	0.756	0.731	0.699	0.517	0.58	0.515	0.536	0.52	0.43	0.462	0.865	–	0.766	0.371	0.345	0.368	0.304	0.272	0.827
SK-MES-1	0.363	0.376	0.358	0.292	0.297	0.361	0.307	0.313	0.254	0.3	0.934	0.903	0.901	0.662	0.635	0.755	0.608	0.675	0.978
LCLC-103H	0.688	0.717	0.775	0.571	0.465	0.451	0.489	0.457	0.427	0.37	1.06	1.01	1.09	0.344	0.347	0.311	0.245	0.272	1.06
NCI-H322M	0.722	0.707	0.721	0.627	0.529	0.47	0.493	0.453	0.389	0.309	0.934	1.23	0.716	0.74	0.674	0.736	0.558	0.55	–
NCI-H23	0.322	0.276	0.327	0.28	0.198	0.59	0.434	0.461	0.305	0.313	0.468	0.654	0.465	0.779	0.702	0.783	0.605	0.506	0.541
HCC-15	0.642	0.531	0.622	0.504	0.383	0.749	0.702	0.773	0.617	0.551	0.75	0.699	0.81	0.5	0.434	0.45	0.372	0.274	0.803
NCI-H1437	0.562	0.579	0.609	0.527	0.527	0.327	0.314	0.356	0.264	0.314	0.801	0.895	0.906	0.326	0.296	0.291	0.232	0.215	0.937
A-427	0.518	0.483	0.574	0.461	0.44	0.5	0.507	0.521	0.493	0.437	0.819	0.919	0.815	0.354	0.212	0.329	0.26	0.243	0.983
NCI-H1975	0.39	0.357	0.387	0.366	0.268	0.628	0.552	0.597	0.323	0.319	0.955	0.837	1.02	0.417	0.41	0.387	0.298	0.208	0.926
SK-LU-1	0.649	0.645	0.633	0.577	0.589	0.398	0.372	0.386	0.326	0.377	0.855	0.664	0.72	0.495	0.498	0.434	0.408	0.358	0.905
NCI-H520	0.422	0.531	0.481	0.442	0.412	0.241	0.235	0.195	0.19	0.189	0.659	0.765	0.703	0.55	0.439	0.417	0.316	0.311	0.755
NCI-H1755	0.661	0.69	0.778	0.678	0.575	0.417	0.41	0.458	0.371	0.382	0.798	0.844	0.79	0.653	0.601	0.68	0.574	0.433	0.842
NCI-H1734	0.532	0.478	0.497	0.477	0.255	0.307	0.282	0.373	0.263	0.227	0.665	0.579	0.516	0.376	–	0.349	0.275	0.23	0.684
NCI-H358	0.194	0.195	0.205	0.178	0.169	0.118	0.104	0.139	0.103	0.103	0.619	0.72	0.528	0.309	0.321	0.338	0.242	0.16	–
NCI-H650	0.352	0.324	0.327	0.318	0.284	0.315	0.345	0.316	0.263	0.265	0.705	0.418	0.581	0.469	0.429	0.534	0.349	0.369	0.72
BEN	0.776	0.679	0.837	0.693	0.749	0.485	0.504	0.516	0.439	0.447	0.812	0.603	0.817	0.262	0.239	0.267	0.296	0.281	0.9
NCI-H647	0.423	0.497	0.537	0.306	0.35	0.322	0.447	0.421	0.289	0.275	1.03	0.884	0.713	0.396	0.421	0.53	0.378	0.359	0.963
NCI-H661	0.56	0.586	0.576	0.474	0.495	0.365	0.367	0.411	0.412	0.359	0.819	–	0.949	0.285	0.281	0.253	0.245	0.262	1.07
HCC-44	0.891	0.97	1.02	0.921	0.889	0.98	0.921	0.988	0.881	0.913	0.749	0.809	0.813	0.248	0.174	0.187	0.141	0.161	0.867
NCI-H1792	0.444	0.368	0.581	0.443	0.401	0.631	0.62	0.658	0.508	0.321	0.905	0.806	1	0.593	0.262	0.291	0.0902	0.0842	0.913
NCI-H2347	0.641	0.635	0.657	0.539	0.571	0.417	0.45	0.407	0.474	0.423	0.655	0.397	0.69	0.445	0.299	0.416	0.38	0.376	0.657
LC-2-ad	0.823	0.767	0.83	0.735	0.768	0.547	0.47	0.467	0.404	0.409	0.315	0.377	0.392	0.603	0.549	0.586	0.338	0.427	0.461
COR-L 105	0.55	0.736	0.706	0.683	0.569	0.394	0.439	0.414	0.367	0.364	0.623	0.661	1.13	0.446	0.593	0.669	0.416	0.415	–
